In experiment [1] the test system is plasmid nucleic acid pRSVLuc. Put plainly: Surface plasmon resonance (BIAcore) binding kinetics of peptides/conjugates to immobilized biotinylated plasmid DNA. The settings on record: for ka: apparent rate constant for association; for ka / kd: SPR, PBS, 25° C.; for kd: apparent rate constant for dissociation. On the procedure: In the examples described below, SPR was detected using the BIAcore system. This machine contained an SPR detector and an integrated microfluidic cartridge which is engineered such that an analyte solution (cationic peptide) is continuously passed over the sensor chip. The sensor chip consists of a glass plate coated with a thin film of gold covered in a layer of carboyxymethyl dextran. The chip used has a dextran layer to which streptavidin is covalently attached. The chip is prepared for use by adding biotinylated nucleic acid which will be bound to the chip via the streptavidin-biotin interaction, and the same chip is used in a series of experiments.
As material binds to the immobilized nucleic acid molecule on the sensor chip, the SPR angle of plane polarized light shining on the surface of the chip is monitored by the detector. Changes in angle are defined as resonance units (RU) and data are collected every second. Background effects are detected and automatically subtracted by the use of a control flow cell in line with the nucleic acid flow cell.
A typical sensorgram has three phases: an association phase, an equilibrium phase and a dissociation phase (see FIG. 1). The rise in signal occurs as more peptide binds to the immobilized plasmid DNA until equilibrium conditions are reached. The height of the peak is directly proportional to the mass of peptide bound. If the flow continues with buffer containing no peptide, peptide begins to dissociate from the complex and the resonance signal is reduced. The sensorgram can be used to compute apparent rate constants for each of the three individual processes.
(1) dC/dt=ka [PF ] [Pmax -PB ]-kd [PB ]
Measurement of Binding Kinetics by Surface Plasmon Resonance
A 6 kilobase (kb) plasmid DNA (pRSVLuc) was biotinylated using photoactivatable biotin (Pierce and Warriner) as per manufacturer's instructions.
A sensor chip with immobilized streptavidin (SA5) was conditioned following manufacturer's instructions, i.e., three one-minute injections of 1 M NaCl: 50 mM NaOH followed by one 1 min injection of 0.5% SDS. Flow rate on the BlAcore sensing device was 20 μl per min, running buffer was phosphate buffered saline (PBS). Flow path was flow cells 1 and 2.
The flow path was switched to flow cell 2 only and the flow rate was reduced to 10 μl per minute. Biotinylated plasmid at a concentration of […] in 0.5M NaCl was injected for 3 mins.
Phosphate buffered saline was used as running buffer at a flow rate of 20 μl per minute. The flow path was over flow cells 1 and 2. Flow cell 1 was used as a reference cell. The experiments were carried out at a temperature of 25° C.
Peptides were injected at various concentrations for three minutes. The injection was followed by a 5 min dissociation phase before the injection port was washed. The sensor chip was regenerated by the injection of 2M NaCl for 1 min. If necessary, this injection was repeated to bring the response back down to baseline before the next peptide sample was injected.
The data was analysed using the methods described in the handbook (BIAevaluation 2.1. Software Handbook, Pharmacia Biosensor AB, Uppsala, Sweden).
Essentially the plots were evaluated as follows: The dissociation constant, kd, was determined first. A curve or family of curves (same NBC at different concentrations) were plotted as response (Y) versus time as Ln (Yo/Y) versus time. In the area where the Ln(Yo/Y) curve was linear, a fit of the default dissociation model [AB]=[A]+[B] was made. The association constant, ka, was then calculated by fitting the related association model on that part of the association curve where a plot of In(abs(dY/dt) versus time was linear. KD were approximated by dividing the calculated kd with the calculated ka.
Background: Surface plasmon resonance follows binding to a sensor surface in real time, without labels.

The subject of experiment [2] is KLN-205 squamous epithelial syngenic tumour cells. Put plainly: In vivo transfection of KLN-205 tumours in DBA2 mice by local injection of peptide/plasmid complexes (nitroreductase immunostaining). The conditions noted are these: 0.5 μg peptide/μg DNA, intratumoural injection. Also noted: species or system mouse. On the procedure:
A representative in via cell transfection system is transfection of tumor cells using a murine carcinoma model.
The murine carcinoma model DBA2 containing the squamous epithelial syngenic tumour cell line KLN-205 was prepared as described in the Examples. A transfecting complex was prepared using a solution of plasmid DNA encoding a reporter gene or, for example, nitroreductase and a selected NBC peptide 0.5 μg peptide/μg DNA, as described herein. Where desired, a conjugate peptide was added to the transfecting complex, at a concentration of 0.1-0.3 μg […] peptide/μg DNA.
Transfection efficiency may be determined in a number of ways, including assessing the effect of the reporter gene on the target tissue, or by quantitating the gene product. Below, tissues samples were obtained and nitroreductase gene expression was ascertained via staining of tissue sections.
The ability to transfect tumor cells in vivo in mice was tested using plasmid nucleic acid carrying the nitroreductase reporter gene condensed on each of the following peptides: NBC15, NBC8, NBC9, NBC11, NBC7.
DBA2--male mice, aged 5-10 weeks were injected subcutaneously in each flank with a squamous epithelial syngenic tumour cell line KLN-205. The cell line was grown up in 175 ml T-flasks in standard EMEM medium containing 10% foetal calf serum. When the cells reached a density of 4×10^6 they were suspended by a standard trypsinization technique, washed in PBS and diluted to a final concentration of […].
The anaesthetic was Enflurane (Alynane; Anaquest, Ltd., Windlesham, Surrey UK): Ketamine (10% Ketaset, Willows Francis Veterinary, Cramley, West Sussex, UK); Rompun (2%, Bayer UK, Ltd., Suffolk, UK). For 10 ml anaesthetic mixture: 8.5 ml PBS; 1 ml Ketamine; 0.5 ml Rompun. Each animal was injected intra-peritoneally with 200 μl/animal using 1 ml syringe with 25 gauge needle. Once anaesthetized, the tumour is manipulated between the fingers lifting it slightly away from the animal's body and at the same time apply minimum pressure to the tumour. Using a 0.5 ml insulin needle the formulated delivery vehicle (a plasmid containing the E. coli nitroreductase gene condensed on a peptide at a ratio of 0.5 μg peptide/μg DNA) to be injected is taken up and the tumour is injected horizontally trying to avoid any visible blood vessels and necrotic or abnormal tissue. Daily monitoring is continued until the experiment is terminated.
7μ sections of frozen tumour tissue are prepared using standard methods and a Cryostat and air dried. Sections are fixed with freshly prepared 4% PFA/PBS for 30 mins at room temperature and then washed twice with 0.01% Tween-20/PBS 5 mins each wash. Sections are then immersed in 0.25% hydrogen peroxide/PBS, at room temperature (20C.) for 30 mins, and then washed three times in 0.01% Tween 20/PBS for 5 mins each wash. Sections are then permeabilised by treatment with ice cold 0.1 % TRITON X-100 for 5 mins, followed by a further two washes in 0.01% Tween-20/PBS 5mins each wash. The sections are then blocked with 5% NGS/PBS 60mins at room temperature in a wetbox. After decanting the blocking solution, 0.5 ml diluted antiserum/slide (1:400 in 2.5% NGS) is added and the sections incubated for 60 mins at room temperature. Slides are then washed three times in 0.01% Tween-20/PBS 5 mins each wash. Secondary antibody (0.5 ml) from ABC Elite Vector stain kit is added as follows and incubated 30 mins at room temperature in a wetbox.
The tumour is a murine syngenic squamous carcinoma produced by subcutaneous injection of KLN205 cells. When the tumours were approximately 4 mm in diameter they were injected with 20 μl of plasmid DNA formulated with the NBC15 peptide. After 48 h the tumours were excised and sectioned by standard histological techniques and immunostained for expression of the transgene (E. coli nitroreductase). […] In this case the tumours were injected with the same plasmid formulated in 0.5 μg NBC9 peptide/μg DNA.

From patent US6218112A, “Optimization of gene delivery and gene delivery system” (Cobra Therapeutics Limited, priority 1997, dated 2001) come the findings set out here.

* marks the point of attachment. Acm = CC(=O)NC*

Take “H-TRPAWRRAKRRAARRCGVSARRAARRAWRRE-OH [NBC7]”: in experiment [1], the ka is 3670 M⁻¹ s⁻¹ and the kd turned out to be 0.000133 s⁻¹. For the same substance, in experiment [1] (shape of association kinetics), the association reaction result is recorded as “clear biphasic kinetics”. In experiment [2], the “ranking by numbers of transfected tumor cells (most to least efficient)” value was “NBC15>NBC8, NBC9, NBC11>NBC7>>>poly-lysine”.

For the substance “NH2-TKKSPKKAKKPAAKKSPKKAKKPAAKKSPKKAKKPAAC(Acm)-COOH (H-TKKSPKKAKKPAAKKSPKKAKKPAAKKSPKKAKKPAAC(Acm)-OH; SMILES CC(=O)NCSC[C@H](NC(=O)[C@H](C)NC(=O)[C@H](C)NC(=O)[C@@H]1CCCN1C(=O)[C@H](CCCCN)NC(=O)[C@H](CCCCN)NC(=O)[C@H](C)NC(=O)[C@H](CCCCN)NC(=O)[C@H](CCCCN)NC(=O)[C@@H]1CCCN1C(=O)[C@H](CO)NC(=O)[C@H](CCCCN)NC(=O)[C@H](CCCCN)NC(=O)[C@H](C)NC(=O)[C@H](C)NC(=O)[C@@H]1CCCN1C(=O)[C@H](CCCCN)NC(=O)[C@H](CCCCN)NC(=O)[C@H](C)NC(=O)[C@H](CCCCN)NC(=O)[C@H](CCCCN)NC(=O)[C@@H]1CCCN1C(=O)[C@H](CO)NC(=O)[C@H](CCCCN)NC(=O)[C@H](CCCCN)NC(=O)[C@H](C)NC(=O)[C@H](C)NC(=O)[C@@H]1CCCN1C(=O)[C@H](CCCCN)NC(=O)[C@H](CCCCN)NC(=O)[C@H](C)NC(=O)[C@H](CCCCN)NC(=O)[C@H](CCCCN)NC(=O)[C@@H]1CCCN1C(=O)[C@H](CO)NC(=O)[C@H](CCCCN)NC(=O)[C@H](CCCCN)NC(=O)[C@@H](N)[C@@H](C)O)C(=O)O) [NBC9]”, in experiment [1], the ka was 97800 M⁻¹ s⁻¹ and the kd stood at 0.00293 s⁻¹. The “ranking by numbers of transfected tumor cells (most to least efficient)” value in experiment [2] is given as “NBC15>NBC8, NBC9, NBC11>NBC7>>>poly-lysine”. For the same substance, the “number of transfected tumor cells / level of transfection” value in experiment [2] (48 h, nitroreductase immunostaining) is “Although transfection is evident the level of transfection is noticeably lower”.
